Measured values reported in ChEMBL document CHEMBL5338747, “Discovery of Quaternized Pyridine-Thiazole-Pleuromutilin Derivatives with Broad-Spectrum Antibacterial and Potent Anti-MRSA Activity” (J Med Chem, 2023).
Values after ≈ are worked out from the molar mass of the structure shown.

How the values were obtained:
Staphylococcus aureus [1] = test: Antibacterial activity against methicillin-resistant Staphylococcus aureus ATCC 33591 assessed as inhibition of bacterial growth incubated for 24 hrs by broth microdilution method; format: functional
Staphylococcus aureus [2] = test: Antibacterial activity against methicillin-resistant Staphylococcus aureus ATCC 43300 assessed as inhibition of bacterial growth incubated for 24 hrs by broth microdilution method; format: functional
Staphylococcus aureus [3] = test: Antibacterial activity against […] assessed as inhibition of bacterial growth incubated for 24 hrs by broth microdilution method; format: functional; conditions: ATCC 29213
[4] = test system: Staphylococcus epidermidis; test: Antibacterial activity against methicillin-resistant Staphylococcus epidermidis ATCC 51625 assessed as inhibition of bacterial growth incubated for 24 hrs by broth microdilution method; format: functional
Acinetobacter baumannii = test: Antibacterial activity against Acinetobacter baumannii ATCC 19606 assessed as inhibition of bacterial growth incubated for 24 hrs by broth microdilution method; format: functional
Salmonella enterica = test: Antibacterial activity against Salmonella enterica ATCC 14028 assessed as inhibition of bacterial growth incubated for 24 hrs by broth microdilution method; format: functional
Escherichia coli [5] = test: Antibacterial activity against Escherichia coli ATCC 25922 assessed as inhibition of bacterial growth incubated for 24 hrs by broth microdilution method; format: functional
Escherichia coli [6] = test: Antibacterial activity against Escherichia coli CMCC 44103 assessed as inhibition of bacterial growth incubated for 24 hrs by broth microdilution method; format: functional
[7] = Aqueous solubility of the compound in physiological saline measured after 12 hrs by UV spectrophotometric analysis; format: physicochemical

SMILES	MIC (Staphylococcus aureus [1]) [mg/L]	MIC (Staphylococcus aureus [2]) [mg/L]	MIC (Staphylococcus aureus [3]) [mg/L]	MIC [4] [mg/L]	MIC (Acinetobacter baumannii) [mg/L]	MIC (Salmonella enterica) [mg/L]	MIC (Escherichia coli [5]) [mg/L]	MIC (Escherichia coli [6]) [mg/L]	solubility at 12 h [7] [µM]
C=C[C@]1(C)C[C@@H](OC(=O)CSc2nnc(-c3ccncc3)o2)[C@]2(C)[C@H](C)CC[C@]3(CCC(=O)[C@H]32)[C@@H](C)[C@@H]1O	64 (≈ 119 µM)	128 (≈ 237 µM)	16 (≈ 29.6 µM)	128 (≈ 237 µM)	128 (≈ 237 µM)	64 (≈ 119 µM)	> 128	128 (≈ 237 µM)	
Br.C=C[C@]1(C)C[C@@H](OC(=O)CSc2nnc(-c3cc[n+](Cc4ccc([N+](=O)[O-])cc4)cc3)o2)[C@]2(C)[C@H](C)CC[C@]3(CCC(=O)[C@H]32)[C@@H](C)[C@@H]1O	32	64	32	32	64	128	> 128	128	
C=C[C@]1(C)C[C@@H](OC(=O)CSc2nc(-c3cc[n+](Cc4ccccc4)cc3)cs2)[C@]2(C)[C@H](C)CC[C@]3(CCC(=O)[C@H]32)[C@@H](C)[C@@H]1O.[Br-]	1		0.125	4	4			0.25	871
C=C[C@]1(C)C[C@@H](OC(=O)CSc2nc(-c3cc[n+](CCCCCCCCCC)cc3)cs2)[C@]2(C)[C@H](C)CC[C@]3(CCC(=O)[C@H]32)[C@@H](C)[C@@H]1O.[Br-]	1	2	0.25	2	4	1	2	4	203
C=C[C@]1(C)C[C@@H](OC(=O)CSc2nnc(-c3cc[n+](Cc4ccc(C)cc4)cc3)o2)[C@]2(C)[C@H](C)CC[C@]3(CCC(=O)[C@H]32)[C@@H](C)[C@@H]1O.[Br-]	16	16	4	64	128	32	32	64	
C=C[C@]1(C)C[C@@H](OC(=O)CSc2nc(-c3cc[n+](Cc4cc(OC)cc(OC)c4)cc3)cs2)[C@]2(C)[C@H](C)CC[C@]3(CCC(=O)[C@H]32)[C@@H](C)[C@@H]1O.[Br-]	64	128	128	128	8	16	32	8	912
C=C[C@]1(C)C[C@@H](OC(=O)CSc2nc(-c3cc[n+](Cc4cc(C)cc(C)c4)cc3)cs2)[C@]2(C)[C@H](C)CC[C@]3(CCC(=O)[C@H]32)[C@@H](C)[C@@H]1O.[Br-]	64	128	128	128	8	16	32	32	543
C=C[C@]1(C)C[C@@H](OC(=O)CSc2nc(-c3cc[n+](Cc4ccc(Br)cc4)cc3)cs2)[C@]2(C)[C@H](C)CC[C@]3(CCC(=O)[C@H]32)[C@@H](C)[C@@H]1O.[Br-]	2	1	0.5	8	2	4	2	0.5	760
C=C[C@]1(C)C[C@@H](OC(=O)CSc2nc(-c3cc[n+](Cc4ccc(-c5ccccc5)cc4)cc3)cs2)[C@]2(C)[C@H](C)CC[C@]3(CCC(=O)[C@H]32)[C@@H](C)[C@@H]1O.[Br-]	2	1	0.5	2	2	2	1	1	271
C=C[C@]1(C)C[C@@H](OC(=O)CSc2nc(-c3cc[n+](Cc4ccc(Cl)cc4)cc3)cs2)[C@]2(C)[C@H](C)CC[C@]3(CCC(=O)[C@H]32)[C@@H](C)[C@@H]1O.[Br-]	2	2	0.125	8	2	2	0.5	1	649
C=C[C@]1(C)C[C@@H](OC(=O)CSc2nc(-c3cc[n+](Cc4ccc(C#N)cc4)cc3)cs2)[C@]2(C)[C@H](C)CC[C@]3(CCC(=O)[C@H]32)[C@@H](C)[C@@H]1O.[Br-]	64	2	0.125	16	32	32	2	8	683
C=C[C@]1(C)C[C@@H](OC(=O)CSc2nc(-c3cc[n+](Cc4ccc(F)cc4)cc3)cs2)[C@]2(C)[C@H](C)CC[C@]3(CCC(=O)[C@H]32)[C@@H](C)[C@@H]1O.[Br-]	2	8	1	4	16	1	2	1	807
C=C[C@]1(C)C[C@@H](OC(=O)CSc2nc(-c3cc[n+](Cc4ccc(OC(F)(F)F)cc4)cc3)cs2)[C@]2(C)[C@H](C)CC[C@]3(CCC(=O)[C@H]32)[C@@H](C)[C@@H]1O.[Br-]	2	2	2	4	8	4	2	32	537
C=C[C@]1(C)C[C@@H](OC(=O)CSc2nnc(-c3cc[n+](Cc4ccccc4)cc3)o2)[C@]2(C)[C@H](C)CC[C@]3(CCC(=O)[C@H]32)[C@@H](C)[C@@H]1O.[Br-]	64	32	16	128	128	32	128	64	
C=C[C@]1(C)C[C@@H](OC(=O)CSc2nc(-c3cc[n+](CCCCCCCCCCCCCCCC)cc3)cs2)[C@]2(C)[C@H](C)CC[C@]3(CCC(=O)[C@H]32)[C@@H](C)[C@@H]1O.[Br-]	> 128	64	64	> 128	> 128	> 128	> 128	> 128	187
Br.C=C[C@]1(C)C[C@@H](OC(=O)CSc2nc(-c3cc[n+](Cc4ccc([N+](=O)[O-])o4)cc3)cs2)[C@]2(C)[C@H](C)CC[C@]3(CCC(=O)[C@H]32)[C@@H](C)[C@@H]1O	32	8	4	8	16	32	8	64	1650
C=C[C@]1(C)C[C@@H](OC(=O)CSc2nc(-c3ccncc3)cs2)[C@]2(C)[C@H](C)CC[C@]3(CCC(=O)[C@H]32)[C@@H](C)[C@@H]1O	16 (≈ 28.8 µM)	32 (≈ 57.7 µM)	8 (≈ 14.4 µM)	32 (≈ 57.7 µM)	64 (≈ 115 µM)	32 (≈ 57.7 µM)	64 (≈ 115 µM)	32 (≈ 57.7 µM)	
C=C[C@]1(C)C[C@@H](OC(=O)CSc2nc(-c3cc[n+](Cc4ccc5ccccc5c4)cc3)cs2)[C@]2(C)[C@H](C)CC[C@]3(CCC(=O)[C@H]32)[C@@H](C)[C@@H]1O.[Br-]	16	4	4	4	16	4	16	8	483
C=C[C@]1(C)C[C@@H](OC(=O)CSc2nc(-c3cc[n+](Cc4ccc(C(F)(F)F)cc4)cc3)cs2)[C@]2(C)[C@H](C)CC[C@]3(CCC(=O)[C@H]32)[C@@H](C)[C@@H]1O.[Br-]	2	4	0.25	2	2	2	1	2	899
C=C[C@]1(C)C[C@@H](OC(=O)CSc2nc(-c3cc[n+](CCCC)cc3)cs2)[C@]2(C)[C@H](C)CC[C@]3(CCC(=O)[C@H]32)[C@@H](C)[C@@H]1O.[Br-]	2	4	4	4	16	2	16	4	672
C=C[C@]1(C)C[C@@H](OC(=O)CSc2nc(-c3cc[n+](Cc4ccc(C(C)(C)C)cc4)cc3)cs2)[C@]2(C)[C@H](C)CC[C@]3(CCC(=O)[C@H]32)[C@@H](C)[C@@H]1O.[Br-]	1	2	0.25	2	2	2	2	2	306
C=C[C@]1(C)C[C@@H](OC(=O)CSc2nc(-c3cc[n+](Cc4cc(F)cc(F)c4)cc3)cs2)[C@]2(C)[C@H](C)CC[C@]3(CCC(=O)[C@H]32)[C@@H](C)[C@@H]1O.[Br-]	64	64	64	64	8	16	16	32	803
C=C[C@]1(C)C[C@@H](OC(=O)CSc2nnc(-c3cc[n+](Cc4ccc(C#N)cc4)cc3)o2)[C@]2(C)[C@H](C)CC[C@]3(CCC(=O)[C@H]32)[C@@H](C)[C@@H]1O.[Br-]	32	16	16	64	> 128	32	64	64	
